Measurements taken from patent US5786344A, “Camptothecin drug combinations and methods with reduced side effects” (priority 1995, dated 1998).
“And” between values parts separate entries of the source, which are not always exact repeats. Equal entries are not always repeated. “Also recorded” adds a separate entry of the source.

What was measured:
[1] = cited from earlier work
tumors = details: preclinical and clinical tumors; cited from earlier work
[2] = rats, cited from earlier work
[3] = Phase I pharmacokinetics of CPT-11, SN-38 and SN-38G in plasma/urine after 90 min iv infusion; details: for "Biliary ratio" (median): AUC SN-38/SN-38G
Description: All patients met the standard laboratory criteria including criteria for adequate organ function. Informed, written consent was obtained from all patients prior to their first dose of CPT-11. The drug was given in 500 cc normal saline by intravenous infusion over 90 minutes on a weekly basis for four doses in a sixweek cycle. […] A second cycle was given with the same dose and schedule used during cycle 1. […] Patients who experienced dose limiting neutropenia were eligible to receive G-CSF at 5 μg/kg/day according to the criteria defined below.
To determine drug and metabolite levels, heparinized blood samples obtained on the first cycle of therapy, were centrifuged and the plasma was stored at -70° C. until analysis. CPT (camptothecin, 1 μg/ml, obtained from the National Cancer Institute, Bethesda, Md.) was used as an internal standard. One hundred μl of plasma was extracted with 2 ml of methanol, centrifuged at 2500×g for 10 min and the supernatant was evaporated to dryness. Reconstitution was done with 200 μl of methanol containing 0.1% 10M HCL (pH~2.0). For the estimation of SN-38G, plasma samples were extracted as described above. Prior to reconstitution, the samples were incubated with 1000 U of glucuronidase (Sigma Chemical Co., St. Louis, Mo.) for 2 hours at 37° C.
Analysis was done using a C18 column (μBondapak, 10 μm, 3.9×300 mm; Waters Associates, Milford, Mass.) preceded by a Novapak C18 guard column. […] Detection was monitored by a Hitachi F1050 Fluorescence detector (Hitachi Instruments Inc., Naperville, Ill.) with a λex at 375 nm and λem at 566 nm. […] SN-38G concentrations were determined as the increase in SN-38 concentrations following incubation with glucuronidase.
The plasma concentration-time data of CPT-11, SN-38 and SN-38G were analyzed by non-compartmental analysis using PCNONLIN (SCI, Lexington, Ky.). The area under the plasma concentration-time curve (AUC) from time zero (predose) to the time of the last quantifiable concentration (AUCt) was calculated by the trapezoidal rule. The AUC extrapolated to time infinity (AUCt →.infin.) was estimated by dividing the last quantifiable concentration by the terminal rate constant obtained by the log-linear regression of the terminal elimination phase. The AUC was the summation of AUCt and AUCt→.infin.. Clearance (CL) was estimated as the ratio of the dose and AUC.
The present study employed this principle to obtain an estimate of SN-38 excreted in the bile. Since glucuronidation is the major pathway of elimination of SN-38, the fraction of SN-38 not conjugated would be primarily excreted in the bile. The net biliary concentration of SN-38 would then be a resultant of its formation and elimination. This concentration was expressed as the "biliary ratio" which was the ratio of AUC of SN-38 to SN-38G. To control for individual variability in the amount of available drug, the ratio was multiplied by the AUC of CPT-11 to obtain a "biliary index" of SN-38.
The nonparametric Mann-Whitney test was employed to test for differences in pharmacokinetic outcomes between two patient groups, defined by the worst severity of diarrhea experienced in the first two cycles of CPT-11 treatment. Statistical tests were performed in the Number Cruncher Statistical System (Dr. Jerry Hintz, Kaysville, Utah). A two-sided significance level of less than or equal to 0.05 was considered statistically significant.

[4] = Phase I toxicity evaluation (CALGB expanded toxicity criteria); format: in vivo, human
Description: […]. The detailed examples presented in the present application reflect treatment on 21 patients.
Significant gastrointestinal toxicity was first manifested at the second dose level (120 mg/m2). […] […]. […] Two of these cases were found at exploratory laparotomy to be due to progression of disease and one resolved after conservative therapy, but was likely due to progression of disease. […] In a few patients, however, high doses of ondansetron were required to achieve relief.
Toxicity assessment was done according to the CALGB expanded toxicity criteria. Patients who experienced>grade 2 diarrhea at any time while on study were begun on loperamide 4 mg p.o. followed by 2 mg p.o. after every stool up to a total dose of 16 mg/day. If loperamide was unsuccessful in controlling diarrhea, patients were begun on octreotide acetate 100-600 μg for 2-3 doses per day. Stool collections were also obtained to test for any co-existing infection. […]

UDP-GT = assay: in vivo
Excerpt: (§1) Of these 2 types of inducers, phenobarbital has been used as an […] and a mildly sedative agent in humans. The inventors' objective here was to investigate the effect of phenobarbital administration on the glucuronidation of SN-38 in rats.
(§2) Animal protocol: Female Wistar rats (~200 gm) having a permanent catheter installed in the right jugular vein were obtained from Charles River Breeding Laboratories (Wilmington, Mass.).
(§3) Three rats were given a single intraperitoneal dose of 100 mg/kg phenobarbital in physiological saline followed by 0.1% (w/v) phenobarbital in drinking water for four days. […] After each sample the catheter was flushed with an equal volume of physiologic saline. The samples were immediately centrifuged at 2500×g for 10 minutes and the plasma obtained was stored at -70° C. until analysis.
(§4) Data Analysis: The plasma concentration-time profile of the control and pretreated groups of rats were analyzed using non-compartmental methods (PCNONLIN, SCI, Lexington, Ky.). […] The nonparametric Mann-Whitney test was used to test for differences in AUC between the control and pretreated groups.

in vivo = details: rat, in vivo, iv, 20 mg/kg
Excerpt: as §1, §2, §3, §4

Question: For CCc1c2c(nc3ccc(OC(=O)N4CCC(N5CCCCC5)CC4)cc13)-c1cc3c(c(=O)n1C2)COC(=O)[C@]3(O)CC [CPT-11, 7-ethyl-10-[4-(1-piperidino)-1-piperidino)carbonyloxycamptot hecin], which route of excretion ([1]; animal studies) is on record?
Answer: equally excreted into bile and urine

Question: And the “dose eliminated in the urine” value ([1]; rats, % of CPT-11 dose)?
Answer: about 20%

Question: What about the “antitumor activity” value (tumors) of the same compound?
Answer: significant activity in a broad spectrum of in vitro and in vivo tumor models; also recorded: antitumor activity in phase II trials

Question: What about the “biliary radioactivity excreted over 24 h as” value ([2]; 24 h) of the same compound?
Answer: 55%

Question: What about the “biliary radioactivity reabsorbed from the intestine” value [2] of the same compound?
Answer: approximately 18%

Question: And the “"biliary index" (median)” value ([3]; 145 mg/m2, Grade 0-2 diarrhea, p=0.03)?
Answer: 2275 and 2276

Question: What about the “"biliary index" (median)” value ([3]; 145 mg/m2, Grade 3-4 diarrhea, p=0.03) of the same compound?
Answer: 4747

Question: And the “"Biliary ratio" (median)” value ([3]; 145 mg/m^2, Grade 0-2 diarrhea, n = 5)?
Answer: 0.27

Question: And the “"biliary index" (median)” value ([3]; 145 mg/m^2, Grade 0-2 diarrhea, n = 5, p 0.03)?
Answer: 2276 ng·h/mL

Question: And the “"Biliary ratio" (median)” value ([3]; 145 mg/m^2, Grade 3-4 diarrhea, n = 5)?
Answer: 0.53

Question: What about the “"biliary index" (median)” value ([3]; 145 mg/m^2, Grade 3-4 diarrhea, n = 5, p 0.03) of the same compound?
Answer: 4747 ng·h/mL

Question: And the “"biliary index"” value ([3]; 4 of 5 patients with grade 3-4 diarrhea, 145 mg/m^2)?
Answer: above 4000

Question: And the “effect of pretreatment with G-CSF on pharmacokinetics” value ([3]; CPT-11 and its metabolites)?
Answer: no effect

Question: What about the “"biliary index" (median)” value ([3]; all dose levels, grade 0-2 diarrhea, n=12, p=0.0004) of the same compound?
Answer: 2228

Question: And the “"biliary index" (median)” value ([3]; all dose levels, grade 3-4 diarrhea, n=9, p=0.0004)?
Answer: 5499

Question: What about the “increase of AUC from 100 to 175 mg/m^2” value ([3]; in vivo) of the same compound?
Answer: 2.6 fold

Question: And the “interpatient variability of AUC (percent coefficient of variation)” value ([3]; in vivo)?
Answer: 17-57%

Question: And the “patients with grade 3-4 diarrhea having index estimates above 4000” value ([3]; in vivo)?
Answer: about 90%

Question: And the “"biliary index"” value ([3]; one patient, grade 3-4 diarrhea, c diff+)?
Answer: 3028

Question: What about the myelosuppression ([4]; 100 mg/m2) of the same compound?
Answer: not a significant toxicity

Question: And the diarrhea ([4]; 100 mg/m^2)?
Answer: No diarrhea was observed

Question: And the myelosuppression ([4]; 120 mg/m2)?
Answer: dose-limiting in one patient

Question: And the “patients developing grade 3-4 diarrhea” value ([4]; 120 mg/m^2)?
Answer: 34%

Question: And the myelosuppression ([4]; 145 mg/m2, ameliorated by prophylactic G-CSF)?
Answer: dose-limiting in two patients

Question: And the “neutropenia >grade 1” value ([4]; 145 mg/m2 with G-CSF)?
Answer: No cases

Question: What about the “patients developing grade 3-4 diarrhea” value ([4]; 145 mg/m^2) of the same compound?
Answer: 50%

Question: What about the neutropenic fevers ([4]; 175 mg/m2, first two patients, despite prophylactic G-CSF) of the same compound?
Answer: hospitalized with neutropenic fevers

Question: And the “patients developing grade 3-4 diarrhea” value ([4]; 175 mg/m^2)?
Answer: 100%

Question: What about the major toxicities ([4]; 100-175 mg/m2) of the same compound?
Answer: myelosuppression, diarrhea, and abdominal cramping pain

Question: What about the abdominal cramping ([4]; Patients 4 (120 mg/m2), 21 and 15 (145 mg/m2)) of the same compound?
Answer: grade 3 abdominal cramping

Question: What about the neutropenic fevers ([4]; Patients 13 and 16, 145 mg/m2, cycle 1) of the same compound?
Answer: hospitalized with neutropenic fevers

Question: What about the small bowel obstructions ([4]; likely due to progression of disease) of the same compound?
Answer: Three patients developed small bowel obstructions

Question: And the nausea and vomiting ([4]; majority of patients, doses >120 mg/m2)?
Answer: grade 1-2 nausea and vomiting

Question: And the abdominal cramps ([4]; other patients)?
Answer: Four other patients had mild (grade 1) abdominal cramps

Question: What about the decrease in availability (UDP-GT; UDP-GT induction by phenobarbital) of the same compound?
Answer: ~2 fold

Question: And the “decline in AUC” value (UDP-GT; phenobarbital pretreated)?
Answer: 60%

Question: And the “Change in AUC CPT-11” value (UDP-GT; phenobarbital pretreated vs control)?
Answer: -60.29%

Question: And the AUC at 6 h (in vivo; AUC CPT-11, control, CPT-11 20 mg/kg iv, n = 4, 0-6 h)?
Answer: 7700 ± 2670 ng·h/mL

Question: And the AUC at 6 h (in vivo; AUC CPT-11, phenobarbital pretreated, CPT-11 20 mg/kg, n = 2)?
Answer: 3060 ng·h/mL
